Experimental data taken from patent US7064139B2, “Method for treating retroviral infections” (Uniroyal Chemical Company, Inc., priority 2001, dated 2006).
Converted amounts (≈) assume the structure as drawn. Where two headings read alike, the source gives them in different places.

Key:
HIV-1 (IIIB) = assay: microbe, parasite or virus in culture; format: cell-based; conditions: for EC50: Human immunodeficiency virus 1, IIIB, CCRF-CEM, read-out: EC50 (ug/ml) HIV-1; for HIV-1 % Protection: protection of CEM cells against virus-induced cytopathicity at the concentration in the previous column
Source text: (§1) The cell type used to determine activity of the compounds of the invention herein, i.e., the test compounds, against HIV was human T-lymphoblast (CEM) cells obtained from the American Tissue Cell Culture Collection (Rockville, Md.). HIV-1 (IIIB) was originally obtained from the culture of persistently HIV-1 infected H9 cells and was provided by R. C. Gallo and M. Popovic (National Cancer Institute, National Institutes of Health, Bethesda, Md.). HIV-2 (ROD) was originally obtained from L. M. Montagnier (Pasteur Institute, Paris, France).
(§2) To determine the antiviral activity of the test compounds, CEM cells were suspended at a cell density of approximately 300,000 cells per ml of culture medium and infected with approximately 100 CCID50 (100 CCID50 being the 50% cell culture infective dose) of HIV-1 (IIIB) or HIV-2 (ROD)). Then 100 μl of the infected cell suspensions was added to 200 μl micro titer plate wells containing 100 μl of appropriate serial (5-fold) dilutions of the test compounds. The inhibitory effect of the test compounds on HIV-1 or HIV-2 syncytium formation in CEM cells was examined microscopically on day four post infection.
(§3) In these cases, the percent protection of the cells against virus-induced cytopathicity by the test compounds at the indicated compound concentration in the previous column is given.

Davis strain CMV = assay: Reduction of CMV-induced cytopathicity in HEL cells; format: cell-based, human cytomegalovirus (HCMV); conditions: for EC50: read-out: Antiviral EC50 (ug/ml) Davis strain CMV; for Antiviral % Inhibition Davis strain CMV: estimate of percent protection at the concentration in the previous column
Description: Confluent HEL cells grown in […] microtiter plates were inoculated with CMV at an input of 100 PFU (plaque forming units) per well. After a one to two hour incubation period, residual virus was removed and the infected cells were further incubated with MEM (Minimal Essential Medium) (supplemented with 2% inactivated Fetal Calf Serum (FCS), […], and 0.3% sodium bicarbonate) containing varying concentrations of the test compounds. Antiviral activity was expressed as EC50 (50% effective concentration), or test compound concentration required to reduce virus-induced cytopathicity after seven days by 50% compared to the untreated control.
In some cases, the compounds had considerable cytotoxicity against HEL cells, which made determination of the EC50 difficult. In these cases, an estimate of the percent protection at the compound concentration indicated in the previous columns is given.

HIV-2 (ROD) = assay: Inhibition of HIV-2 syncytium formation in CEM cells; format: cell-based; conditions: for EC50: Human immunodeficiency virus 2, CCRF-CEM, read-out: EC50 (ug/ml) HIV-2; for HIV-2 % Protection: protection of CEM cells against virus-induced cytopathicity at the concentration in the previous column
Source text: as §1, §2, §3

[1] = CEM cells, syncytium formation, day four post infection
[2] = Human betaherpesvirus 5, 168 h, HEL cells, virus-induced cytopathicity after seven days
[3] = HEL cells, virus-induced cytopathicity after seven days
[4] = Human betaherpesvirus 5, HEL, 168 h

SMILES | EC50 (HIV-1 (IIIB); [1]) [µg/mL] | EC50 (Davis strain CMV; [2]) [µg/mL] | EC50 (HIV-2 (ROD); [1]) [µg/mL] | EC50 (ug/ml) HIV-1 (HIV-1 (IIIB); [1]) | Antiviral EC50 (ug/ml) Davis strain CMV (Davis strain CMV; [3]) [µg/mL] | EC50 (ug/ml) HIV-2 (HIV-2 (ROD); [1]) | HIV-1 % Protection (HIV-1 (IIIB)) [%] | HIV-2 % Protection (HIV-2 (ROD)) [%] | Antiviral % Inhibition Davis strain CMV (Davis strain CMV; HEL cells) [%] | EC50 (HIV-1 (IIIB)) [µg/mL] | EC50 (Davis strain CMV; [4]) [µg/mL] | EC50 (HIV-2 (ROD)) [µg/mL]
[O-][n+]1ccccc1SCc1ccccc1 [Compound 4] | – | – | – | ≧100 ug/ml | >50 | >100 µg/mL | 37.5 | 0.0 | 0.0 | – | – | –
COc1ccc(CS(=O)(=O)c2cccc[n+]2[O-])cc1 [Compound 19] | – | – | – | ≧20 ug/ml | 20.0 | 14.0 µg/mL (≈ 50.1 µM) | 37.5 | – | – | – | – | –
Cc1ccc(C)c(CSc2c(Cl)ccc[n+]2[O-])c1 [Compound 133, 3-Chloro-2-[[(2,5-dimethylphenyl)methyl]thio]pyridine 1-oxide] | – | – | – | – | – | – | – | 0.0 | – | 0.14 (≈ 0.5 µM) | 25 (≈ 89.4 µM) | > 20
Oc1cccnc1SCc1ccccc1 [Compound 140, 2-[(Phenylmethyl)thio]-3-pyridinol] | 2 (≈ 9.2 µM) | – | – | – | – | – | – | – | – | – | 12 (≈ 55.2 µM) | 12 (≈ 55.2 µM)
Cc1ccc(C)c(C(C)S(=O)(=O)c2cccc[n+]2[O-])c1 (centres unmarked) [Compound 9, 2-(1-[2,5-Dimethylphenyl]ethylsulfonyl)pyridine N-oxide] | ≥ 100 | > 50 | > 100 | – | – | – | 37.5 | 0.0 | 0.0 | – | – | –
O=[N+]([O-])c1ccccc1CS(=O)(=O)c1cccc[n+]1[O-] [Compound 42] | – | – | – | 8.00 µg/mL (≈ 27.2 µM) | >5 | ≧4 ug/ml | – | 37.5 | 10.0 | – | – | –
Cc1ccc(C)c(C[S+]([O-])c2cccc[n+]2[O-])c1 (centres unmarked) [Compound 3] | – | – | – | 7.20 µg/mL (≈ 27.5 µM) | 36.0 | ≧20 ug/ml | – | 37.5 | – | – | – | –
O=S(=O)(Cc1c(Cl)c(Cl)c(Cl)c(Cl)c1Cl)c1cccc[n+]1[O-] [Compound 32, 2-(Pentachlorobenzylsulfonyl)-pyridine-N-oxide] | 0.63 (≈ 1.49 µM) | – | – | – | – | – | – | – | – | – | 14 (≈ 33.2 µM) | 1 (≈ 2.37 µM)
O=S(=O)(Cc1ccccc1Cl)c1cccc[n+]1[O-] [Compound 15] | – | – | – | 6.00 µg/mL (≈ 21.1 µM) | 5.0 | 7.0 µg/mL (≈ 24.7 µM) | – | – | – | – | – | –
Cc1ccc([N+](=O)[O-])c(CS(=O)(=O)c2cccc[n+]2[O-])c1 [Compound 62] | – | – | – | 1.90 µg/mL (≈ 6.16 µM) | >5 | 5.0 µg/mL (≈ 16.2 µM) | – | – | 20.0 | – | – | –
COc1ccc(C(c2ccccc2)S(=O)(=O)c2cccc[n+]2[O-])cc1OC (centres unmarked) [Compound 61] | – | – | – | >4 µg/mL | 14.0 | >4.0 µg/mL | 0.0 | 6.0 | – | – | – | –
Cc1ccc(C)c(CS(=O)(=O)c2cccc(Cl)[n+]2[O-])c1 [Compound 77] | – | – | – | 0.70 µg/mL (≈ 2.25 µM) | 11.0 | >0.8 µg/mL | – | 0.0 | – | – | – | –
Cc1cccc(CS(=O)(=O)c2cccc[n+]2[O-])c1 [Compound 27] | – | – | – | 2.40 µg/mL (≈ 9.11 µM) | 16.0 | 9.0 µg/mL (≈ 34.2 µM) | – | – | – | – | – | –
Cc1ccc(C(C)S(=O)(=O)c2c(C)ccc[n+]2[O-])c(C)c1 (racemic) [Compound 78] | – | – | – | 1.40 µg/mL (≈ 4.58 µM) | 10.0 | >100.0 µg/mL | – | 0.0 | – | – | – | –
Cc1ccc(C)c(CS(=O)(=O)c2cccc(C)[n+]2[O-])c1 [Compound 72] | – | – | – | 4.00 µg/mL (≈ 13.7 µM) | >50 | >100.0 µg/mL | – | 0.0 | 0.0 | – | – | –
Cc1cc(CS(=O)(=O)c2cccc[n+]2[O-])c(C)cc1CS(=O)(=O)c1cccc[n+]1[O-] [Compound 25] | – | – | – | 10.00 µg/mL (≈ 22.3 µM) | 16.0 | ≧20 ug/ml | – | 37.5 | – | – | – | –
O=S(=O)(Cc1ccc(Cl)cc1Cl)c1cccc[n+]1[O-] [Compound 18] | – | – | – | 2.40 µg/mL (≈ 7.54 µM) | 5.0 | 2.5 µg/mL (≈ 7.86 µM) | – | – | – | – | – | –

Second part, led by results:

EC50 (HIV-1 (IIIB); [1]) [µg/mL] | EC50 (Davis strain CMV; [2]) [µg/mL] | EC50 (HIV-2 (ROD); [1]) [µg/mL] | EC50 (ug/ml) HIV-1 (HIV-1 (IIIB); [1]) | Antiviral EC50 (ug/ml) Davis strain CMV (Davis strain CMV; [3]) [µg/mL] | EC50 (ug/ml) HIV-2 (HIV-2 (ROD); [1]) | SMILES | HIV-1 % Protection (HIV-1 (IIIB)) [%] | HIV-2 % Protection (HIV-2 (ROD)) [%] | Antiviral % Inhibition Davis strain CMV (Davis strain CMV; HEL cells) [%] | EC50 (HIV-1 (IIIB)) [µg/mL] | EC50 (Davis strain CMV; [4]) [µg/mL] | EC50 (HIV-2 (ROD)) [µg/mL]
> 0.8 | 4.3 (≈ 17.4 µM) | > 0.8 | – | – | – | CC(c1ccccc1)[S+]([O-])c1cccc[n+]1[O-] (centres unmarked) [Compound 102, 2-(1-Phenylethylsulfinyl)pyridine N-oxide] | 0.0 | 0.0 | – | – | – | –
– | – | – | 2.30 µg/mL (≈ 8.77 µM) | 40.0 | ≧20 ug/ml | O=[N+]([O-])c1ccc[n+]([O-])c1SCc1ccccc1 [Compound 146] | – | 37.5 | – | – | – | –
– | – | – | >4 µg/mL | >5 | >4.0 µg/mL | Cc1cc([N+](=O)[O-])ccc1CS(=O)(=O)c1c(C)ccc[n+]1[O-] [Compound 118] | – | 0.0 | 10.0 | – | – | –
– | – | – | 16.00 µg/mL (≈ 67.1 µM) | >50 | >100 µg/mL | CN1CCCCC1CSc1cccc[n+]1[O-] (racemic) [Compound 156] | – | 0.0 | 0.0 | – | – | –
– | – | – | >.8 µg/mL | 3.8 | >0.8 µg/mL | COc1ccc(C[S+]([O-])c2cccc[n+]2[O-])cc1 (centres unmarked) [Compound 86] | 0.0 | 0.0 | – | – | – | –
– | – | – | >20 µg/mL | >50 | >20.00 µg/mL | Cc1ccc[n+]([O-])c1S(=O)(=O)C(C)c1ccccc1 (centres unmarked) [Compound 115] | 0.0 | 0.0 | 40.0 | – | – | –
– | – | – | >4 µg/mL | 3.6 | >4 µg/mL | N#CC(=Cc1ccccc1)Sc1cccc[n+]1[O-] [Compound 158] | 0.0 | 0.0 | – | – | – | –
0.75 (≈ 2.46 µM) | 38 (≈ 124 µM) | ≥ 20 | – | – | – | Cc1ccc(C)c(C(C)S(=O)(=O)c2cc(C)cc[n+]2[O-])c1 (centres unmarked) [Compound 108, 2-[1-(2,5-Dimethylphenyl)ethylsulfonyl]-4-methylpyridine N-oxide] | – | 37.5 | – | – | – | –
– | – | – | 3.40 µg/mL (≈ 11.4 µM) | 12.0 | >4.0 µg/mL | Cc1ccc[n+]([O-])c1S(=O)(=O)Cc1ccccc1Cl [Compound 117] | – | 0.0 | – | – | – | –
– | – | – | 3.25 µg/mL (≈ 12.5 µM) | >50 | >100 µg/mL | Cc1ccc(C)c(C(C)[S+]([O-])c2ccccn2)c1 (centres unmarked) [Compound 163] | – | 0.0 | 0.0 | – | – | –
– | – | – | 2.40 µg/mL (≈ 9.53 µM) | >50 | >20.00 µg/mL | [O-][n+]1cccc(Cl)c1SCc1ccccc1 [Compound 132] | – | 0.0 | 0.0 | – | – | –
– | – | – | 16.00 µg/mL (≈ 56.4 µM) | 23.0 | 2.5 µg/mL (≈ 8.81 µM) | O=S(=O)(c1cccc[n+]1[O-])C(Cl)c1ccccc1 (stereo not drawn) [Compound 105, 2-(alpha-phenyl-alpha-chloromethylsulfonyl)pyridine-N-oxide] | – | – | – | – | – | –
– | – | – | >.8 µg/mL | 10.0 | >0.8 µg/mL | COc1ccc(C[S+]([O-])c2cccc[n+]2[O-])cc1OC (centres unmarked) [Compound 98] | 0.0 | 0.0 | – | – | – | –
